Several values for one entry are separate records, joined by “and”; a condition that tells them apart may be missing. Identical values can stand only once. Entries after “also recorded” stand apart in the source; their conditions may differ.
What was measured:
[1] = test system: C. novyi-NT therapy-induced toxicity in mice bearing large subcutaneous CT26 tumors; assay: C. novyi-NT therapy of large subcutaneous CT26 tumors (therapy-induced toxicity); type: in vivo, mouse (BALB/c); settings: for mice surviving: CT26 tumor-bearing BALB/c mice, 12×10^6 spores intratumorally, ANP (osmotic pump 12 μg/day) or metyrosine (IP pre-treatment) given with parental C. novyi-NT
Experimental: ANP concentrations in the supernatant of ANP-C. novyi-NT culture and in mouse plasma were measured by an Elisa kit from Ray Biotech (EIAR-ANP-1) that recognizes both human and mouse ANP. ANP in the supernatant of ANP-C. novyi-NT culture were shown biological activities as described elsewhere (Lofton et al., 1990 Biochem. Biophys. Res. Comm., 172:793-9). Briefly, bacterial supernatants were applied to cultured bovine aortic endothelial cells (BAOEC, Cell Applications Inc.) for 3 minutes. cGMP concentrations were then measured in BAOEC lysates by the Direct cGMP Elisa Kit from Enzo following the manufacture's instruction.
The colon cancer cell line CT26 was injected subcutaneously into the right flank of six to eight week old female Balb/C mice as described elsewhere (Qiao et al., 2011 Oncotarget, 2:59-68). Tumor sizes were measured with a caliper and calculated as ½*L*W*H as described elsewhere (Tomayko et al., 1989 Can. Chemother. Pharmacol., 24:148-54). When tumors reached 600-900 mm^3 after about two weeks, 12×10^6 spores of C. novyi-NT or ANP-C. novyi-NT at 3×10^6/μl were injected intratumorally into 4 central parts of the tumor with a 32 G Hamilton syringe needle. The bacteria typical germinated in the tumors within 24 hours, turning them necrotic. Hydration of the mice was supported by daily subcutaneous injections of […] saline. Human ANP (Sigma) was dissolved in saline, loaded in mini-osmotic pumps (ALZET) with a release rate of 12 μg/day and implanted subcutaneously in the back of mice 12 hours before the spore injection. Pumps loaded with saline served as controls. Metyrosine was dissolved in PBS and injected IP at 60 mg/kg/day for three days before the C. novyi injection to deplete catecholamines in storage. Two hours after the spore injection, 60 mg/kg of metyrosine was injected intraperitoneally (IP). For each of the next three days, IP injections of metyrosine at 30 mg/kg were administered. Control groups were injected with PBS at the same time points.
Blood samples were collected into tubes containing 5 mM EDTA and 4 mM sodium metabisulfite after puncturing the facial vein or (terminally) by cardiac puncture. Subsequently, the samples were centrifuged and the plasmas were stored at −80° C. prior to analysis. Catecholamines (dopamine, norepinephrine and epinephrine) were measured using the 3-CAT Research ELISA kit from Labor Diagnostika Nord GmbH/Rocky Mountain Diagnostics. Cytokines were measured using Luminex assays based on Millipore Mouse and Human Cytokine/Chemokine panels.
ANP concentrations in the supernatant of ANP-C. novyi-642 NT culture and in mouse plasma were measured with an Elisa kit from Ray Biotech (EIAR-ANP-1) that recognizes both human and mouse ANP. […] Briefly, bacterial supernatants were applied to cultured bovine aortic endothelial cells (BAOEC, Cell Applications Inc.) for 3 minutes. cGMP concentrations were then measured in BAOEC lysates by the Direct cGMP Elisa Kit from Enzo following the manufacture's instruction.
The colon cancer cell line CT26 was injected subcutaneously into the right flank of six to eight weeks old female Balb/C mice as described elsewhere (see, e.g., Qiao et al. 2011 Oncotarget 2:59-68). Tumor sizes were measured with a caliper and calculated as ½*L*W*H as described elsewhere (see, e.g., Tomayko et al. 1989 Cancer Chemother Pharmacol 24:148-154). When tumors reached 600-900 mm^3 after about two weeks, 12×10^6 spores of C. novyi-NT or ANP-C. novyi-NT at 3×10^6/μl were injected intratumorally into 4 central parts of the tumor with a 32 G Hamilton syringe needle. The bacteria typical germinated in the tumors within 24 hours, turning them necrotic. Hydration of the mice was supported by daily subcutaneous injections of 500 μl saline. Human ANP (Sigma) was dissolved in saline, loaded in mini-osmotic pumps (ALZET) with a release rate of 12 μg/day and implanted subcutaneously in the back of mice 12 hours before the spore injection. Pumps loaded with saline served as controls. […]

[2] = test system: mouse peritoneal macrophages; assay: Peritoneal macrophage catecholamine and cytokine production; type: cell-based; settings: for cytokine release: ANP 5 μg/ml or metyrosine 2 mM
Experimental: Isolation of elicited macrophages from mouse peritoneum followed previously described procedures with minor modifications (Zhang et al., “The isolation and characterization of murine macrophages,” Curr Protoc Immunol Chapter 14, Unit 14.1 (November, 2008)). Four days prior to the harvest, 1 ml of 3% Brewer's thioglycollate medium (BD) was injected IP in female 2-3 months old BALB/c mice. Mice were euthanized by cervical dislocation and the skin of the belly was cut open without penetrating the muscle layer. Using a syringe with a 22 G needle, 5 ml of cold PBS containing 5 mM EDTA was injected carefully into the peritoneal cavity. After massaging gently for 1-2 minutes, a 1-ml syringe without needle was used to extract the peritoneal contents containing residential macrophages. Cells were centrifuged at 400 g for 10 minutes at 4° C., resuspended in DMEM/F12 medium supplemented with 1% FBS and antibiotics and distributed in 48-well plates at a concentration of 0.5×10^6 cells/well. After incubation at 37° C. for 2 hours, cells were rinsed three times with 0.5 ml media and then 250 μl of media was added to each well. […] For stimulation, the cells were incubated for 24 hours with LPS at 50 μg/ml. […] To stimulate macrophages, they were exposed to epinephrine at 15 ng/ml for 24 hours at 37° C. After the incubation, supernatants were collected from the wells and mixed with 5 mM EDTA and 4 mM sodium metabisulfite for preservation of catecholamines and stored at −80° C. […] Thus, any epinephrine identified in the media must have been secreted by cells in the last 24 hours prior to harvesting the media.
Isolation of elicited macrophages from mouse peritoneum followed previously described procedures with minor modifications66. Four days prior to the harvest, 1 ml of 3% Brewer's thioglycollate medium (BD) was injected IP in female 2-3 months old BALB/c mice or 4-6 weeks old conditional TH knockout mice. Mice were euthanized by cervical dislocation and the skin of the belly was cut open without penetrating the muscle layer. Using a syringe with a 25 G needle, 5 ml of cold PBS containing 5 mM EDTA was injected carefully into the peritoneal cavity. After massaging gently for 1-2 minutes, a 1-ml syringe without needle was used to extract the peritoneal contents containing residential macrophages. Cells were centrifuged at 400 g for 10 minutes at 4° C., resuspended in DMEM/F12 medium supplemented with 1% FBS and antibiotics and distributed in 48-well plates at a concentration of 0.5×10^6 cells/well. After incubation at 37° C. for 2 hours, cells were rinsed three times with 0.5 ml media and then 250 μl of media was added to each well. […] For stimulation, the cells were incubated for 24 hours with LPS at 50 μg/ml. […] To stimulate macrophages, they were exposed to epinephrine at 15 ng/ml for 24 hours at 37° C. After the incubation, supernatants were collected from the wells and mixed with 5 mM EDTA and 4 mM sodium metabisulfite for preservation of catecholamines and stored at −80° C. […] Thus, any epinephrine identified in the media must have been secreted by cells in the last 24 hours prior to harvesting the media.

[3] = test system: Raji-bearing NSGS mice with low tumour burden treated with hCART19; assay: hCART19 treatment of Raji-bearing NSGS mice, low tumour burden; type: in vivo, mouse (NSGS); settings: for hCART19-induced catecholamines and human and mouse cytokines: metyrosine IP or ANP by osmotic pump; for prevention of CRS (mouse cytokines IL-6, KC, MIP-2): with hCART19
Excerpt: Six to eight weeks old female NSG-SGM3 (NSGS) mice (NOD.Cg-Prkdcscid Il2rgtm1WjlTg (CMV-IL3, CSF2, KITLG) 1Eav/MloySzJ, Stock #013062) were purchased from the Jackson Laboratory. Raji cells were transfected with a luciferase construct via lentivirus to create Raji-luc cells. NSGS is a triple transgenic strain expressing human IL3, GM-CSF and SCF combine the features of the highly immunodeficient NOD scid gamma (NSG) mouse. One day before the injection of Raji cells, mice were irradiated at a dose of 2 Gy in a CIXD Xstahl device. In high tumor burden experiments in FIG. 5, 10^6 Raji-luc cells were injected IV via tail vein. Six days later, tumor loads were assessed using a Xenogen instrument and 15×10^6 hCART19 cells or untransduced T-cells were injected IV. In low tumor burden experiments in FIG. 6, 2×10^5 Raji-luc cells were injected IV via tail vein. Four days later, tumor loads were assessed using a Xenogen instrument and 15×10^6 hCART19 cells were injected IV. Metyrosine was injected IP at 60 mg/kg/day for three days before the hCART19 injection. On the day of CART19 injection, a fourth dose of 60 mg/kg was given IP and the mice were subsequently injected four more times at daily intervals at 30 mg/kg.

[4] = plasma, 36 hours after spore injection, versus parental C. novyi-NT alone
[5] = LPS 50 μg/ml, 24 hours, pre-incubation 10 minutes with ANP 5 μg/ml or metyrosine 2 mM
[6] = LPS, epinephrine or the combination of both, metyrosine 2 mM

SMILES	mice surviving [1]	circulating catecholamines [1, 4]	circulating inflammatory cytokines and chemokines [1, 4]	cytokine release ([2]; LPS 50 μg/ml, 24 hours)	catecholamine production [2, 5]	catecholamines produced [2, 6]	cytokines released [2, 6]	animals with tumors eradicated (BLI below 10^6), day 6 ([3]; hCART19 plus metyrosine)	animals with tumors eradicated (BLI below 10^6), day 19 ([3]; hCART19 plus metyrosine)	reduction of lymphoma burden within one week versus hCART19 controls ([3]; hCART19 plus metyrosine, BLI)	long-term survival ([3]; low tumour burden) [%]	hCART19-induced catecholamines and human and mouse cytokines ([3]; low tumour burden)	prevention of CRS (mouse cytokines IL-6, KC, MIP-2) [3]	robust but not curative response, of surviving mice ([1]; CT26 tumors, surviving mice)	tissue damage and leukocyte/myeloid cell infiltration in lungs, liver, spleen ([1]; histology, versus parental C. novyi-NT)	catecholamine production ([2]; epinephrine 15 ng/ml stimulated, ANP pre-treatment)	catecholamine and cytokine (IL-6, TNF-α, MIP-2, KC) production ([2]; epinephrine alone 15 ng/ml)	amplified inflammatory response ([2]; epinephrine in combination with LPS)
C[C@](N)(Cc1ccc(O)cc1)C(=O)O [metyrosine, α-methyl-tyrosine]	85%	substantially reduced	substantially reduced	similarly inhibited	greatly reduced; also recorded: effectively blocked	greatly reduced	diminished	6 out of 10	4 out of 10	significantly more so	40	reduced	effective at preventing CRS					
CC[C@H](C)[C@@H]1NC(=O)[C@H](CCCNC(=N)N)NC(=O)[C@H](CC(=O)O)NC(=O)[C@H](CCSC)NC(=O)[C@H](CCCNC(=N)N)NC(=O)CNC(=O)CNC(=O)[C@H](Cc2ccccc2)NC(=O)[C@@H](NC(=O)[C@H](CO)NC(=O)[C@H](CO)NC(=O)[C@H](CCCNC(=N)N)NC(=O)[C@H](CCCNC(=N)N)NC(=O)[C@H](CC(C)C)NC(=O)[C@@H](N)CO)CSSC[C@@H](C(=O)N[C@@H](CC(N)=O)C(=O)N[C@@H](CO)C(=O)N[C@@H](Cc2ccccc2)C(=O)N[C@@H](CCCNC(=N)N)C(=O)N[C@@H](Cc2ccc(O)cc2)C(=O)O)NC(=O)CNC(=O)[C@H](CC(C)C)NC(=O)CNC(=O)[C@H](CO)NC(=O)[C@H](CCC(N)=O)NC(=O)[C@H](C)NC(=O)CNC1=O [ANP, atrial natriuretic peptide]	~75% and ~73%	major reductions		reduction in the cytokine levels	reduce the production of all three major catecholamines; also recorded: suppress the increased production; also recorded: effectively blocked							abrogated	effective at preventing CRS	20% and 23%	major reductions	inhibited this production	also suppressed	inhibited

From patent US12564622B2, “Preventing cytokine release syndrome” (priority 2017, dated 2026)
